ChEMBL document CHEMBL1201862, “PubChem BioAssay data set” (2004)
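Following 48 hours of exposure in 96-well plates, responses at five concentrations were used to interpolate endpoints linearly. Abbreviation: GI50, concentration required for 50% inhibition of growth.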 The source made the active and inactive calls. No stated cut-off is given here; in the data, active = GI50 up to about 1.1 µM and inactive = higher.

Assays:
Assay in all cases: growth of human tumour cells (NCI), 48 h
A549 = tested on: A549
ACHN = tested on: ACHN
HCT-116 = tested on: HCT-116
HOP-62 = tested on: HOP-62
HOP-92 = tested on: HOP-92
KM12 = tested on: KM12
NCI-H460 = tested on: NCI-H460
NCI-H522 = tested on: NCI-H522
OVCAR-3 = tested on: OVCAR-3
OVCAR-4 = tested on: OVCAR-4
OVCAR-5 = tested on: OVCAR-5
RXF 393 = tested on: RXF 393
SK-MEL-2 = tested on: SK-MEL-2
SN12C = tested on: SN12C
SNB-19 = tested on: SNB-19
SNB-75 = tested on: SNB-75
SW-620 = tested on: SW-620
UACC-62 = tested on: UACC-62
MOLT-4 = tested on: MOLT-4
OVCAR-8 = tested on: OVCAR-8

Measured: GI50

O=c1sc(Nc2ccc3ccccc3c2Cl)nc2ccccc12
inactive: A549 > 100 µM | ACHN > 100 µM | HCT-116 > 100 µM | HOP-62 > 100 µM | HOP-92 35.9 µM | KM12 > 100 µM | NCI-H460 60.4 µM | NCI-H522 > 100 µM | OVCAR-3 > 100 µM | OVCAR-4 > 100 µM | OVCAR-5 > 100 µM | RXF 393 72.1 µM | SK-MEL-2 > 100 µM | SN12C > 100 µM | SNB-19 > 100 µM | SNB-75 49.3 µM | SW-620 > 100 µM | UACC-62 > 100 µM

Fc1ccc(C(OCCN2CCN(CCCc3ccccc3)CC2)c2ccc(F)cc2)cc1
inactive: A549 3.58 µM | ACHN 5.82 µM | HOP-62 5.32 µM | HOP-92 3.5 µM | KM12 4.19 µM | MOLT-4 4.26 µM | NCI-H460 4.34 µM | NCI-H522 3.48 µM | OVCAR-3 4.15 µM | OVCAR-4 4.15 µM | OVCAR-5 4.5 µM | OVCAR-8 3.92 µM | RXF 393 3.67 µM | SK-MEL-2 3.75 µM | SN12C 4.11 µM | SNB-19 3.99 µM | SNB-75 4.8 µM | SW-620 5.47 µM | UACC-62 9.08 µM

COC(C(O)c1ccc2c(c1)OCO2)P(=O)(c1ccccc1)c1ccccc1 (centres undefined)
inactive: ACHN > 100 µM | HCT-116 > 100 µM | HOP-62 > 100 µM | HOP-92 68.2 µM | KM12 > 100 µM | MOLT-4 > 100 µM | NCI-H460 > 100 µM | NCI-H522 85.3 µM | OVCAR-3 15.1 µM | OVCAR-4 11.1 µM | OVCAR-5 > 100 µM | OVCAR-8 62.1 µM | RXF 393 81.7 µM | SK-MEL-2 > 100 µM | SN12C 62.8 µM | SNB-19 > 100 µM | SNB-75 35.9 µM | SW-620 > 100 µM | UACC-62 32.4 µM

COC(=O)[C@]1(C)CCCn2c(=O)n(-c3ccccc3)c(=O)n21
inactive: A549 > 100 µM | ACHN > 100 µM | HCT-116 > 100 µM | HOP-62 > 100 µM | HOP-92 > 100 µM | KM12 > 100 µM | MOLT-4 > 100 µM | NCI-H522 > 100 µM | OVCAR-3 > 100 µM | OVCAR-4 > 100 µM | OVCAR-5 > 100 µM | OVCAR-8 > 100 µM | RXF 393 > 100 µM | SK-MEL-2 > 100 µM | SN12C > 100 µM | SNB-19 > 100 µM | SNB-75 > 100 µM | SW-620 > 100 µM | UACC-62 > 100 µM

CCN(CC)CCNC(=O)c1cc2cc(NC(=O)c3cc4cc(NC(=O)c5cc6cc(N)ccc6[nH]5)ccc4[nH]3)ccc2[nH]1
inactive: A549 > 100 µM | ACHN > 100 µM | HOP-62 > 100 µM | HOP-92 > 100 µM | KM12 > 100 µM | MOLT-4 > 100 µM | NCI-H460 > 100 µM | NCI-H522 > 100 µM | OVCAR-3 > 100 µM | OVCAR-4 > 100 µM | OVCAR-5 > 100 µM | OVCAR-8 > 100 µM | RXF 393 > 100 µM | SK-MEL-2 > 100 µM | SN12C > 100 µM | SNB-19 > 100 µM | SNB-75 > 100 µM | SW-620 > 100 µM | UACC-62 > 100 µM

COc1cc2c(cc1OC)-c1c3c(cc4c1[C@@H](C2)N(C)CC4)OCO3
inactive: A549 3.34 µM | HCT-116 2.87 µM | HOP-62 3.57 µM | HOP-92 6.78 µM | KM12 7.4 µM | MOLT-4 3.85 µM | NCI-H460 2.53 µM | NCI-H522 6.7 µM | OVCAR-3 13.6 µM | OVCAR-4 8.26 µM | OVCAR-5 9.64 µM | OVCAR-8 4.59 µM | RXF 393 8.04 µM | SK-MEL-2 10.9 µM | SN12C 6.14 µM | SNB-19 5.74 µM | SNB-75 7.29 µM | SW-620 3.92 µM | UACC-62 8.38 µM

COc1cc(/C=C/C(=O)O)ccc1C(=O)OCc1ccccc1
inactive: A549 > 100 µM | HCT-116 > 100 µM | HOP-62 > 100 µM | HOP-92 > 100 µM | KM12 > 100 µM | MOLT-4 > 100 µM | NCI-H460 > 100 µM | NCI-H522 > 100 µM | OVCAR-3 > 100 µM | OVCAR-4 > 100 µM | OVCAR-5 > 100 µM | OVCAR-8 > 100 µM | RXF 393 > 100 µM | SK-MEL-2 > 100 µM | SN12C > 100 µM | SNB-19 > 100 µM | SNB-75 > 100 µM | SW-620 > 100 µM | UACC-62 > 100 µM

C=C1CC[C@](C)(O)[C@@]2(C)CC[C@H]3C(=C(C)C)C(=O)C[C@]3(C)C[C@H]12
inactive: A549 42.6 µM | ACHN 42.8 µM | HCT-116 14.8 µM | HOP-62 > 50 µM | HOP-92 > 50 µM | KM12 21 µM | MOLT-4 10.9 µM | NCI-H522 14.3 µM | OVCAR-3 29.9 µM | OVCAR-4 > 50 µM | OVCAR-5 > 50 µM | OVCAR-8 > 50 µM | RXF 393 18.2 µM | SK-MEL-2 > 50 µM | SN12C > 50 µM | SNB-19 > 50 µM | SNB-75 29 µM | SW-620 21.6 µM | UACC-62 16.5 µM

COC(=O)C#CCC1CCCC1C1SCCS1 (centres undefined)
inactive: A549 > 100 µM | ACHN 34 µM | HCT-116 > 100 µM | HOP-62 > 100 µM | HOP-92 > 100 µM | KM12 36.7 µM | MOLT-4 21.2 µM | NCI-H522 28 µM | OVCAR-3 88.3 µM | OVCAR-4 71.4 µM | OVCAR-5 > 100 µM | OVCAR-8 61.1 µM | RXF 393 > 100 µM | SK-MEL-2 26.2 µM | SN12C 37.5 µM | SNB-19 91.4 µM | SNB-75 > 100 µM | SW-620 > 100 µM | UACC-62 35.8 µM

Cc1c(N2C(=O)/C(=C/c3ccc(Cl)cc3)N=C2c2ccccc2)c(=O)n(-c2ccccc2)n1C
inactive: A549 28.8 µM | ACHN 24.8 µM | HCT-116 32.3 µM | HOP-62 81.5 µM | HOP-92 18.7 µM | KM12 26.5 µM | MOLT-4 21.2 µM | NCI-H460 31 µM | NCI-H522 19.8 µM | OVCAR-3 27.1 µM | OVCAR-4 33.9 µM | OVCAR-5 49.2 µM | OVCAR-8 43.7 µM | RXF 393 22.3 µM | SK-MEL-2 16.7 µM | SN12C 34.1 µM | SNB-75 22.5 µM | SW-620 31.9 µM | UACC-62 21.1 µM
